The source of these data is PubChem BioAssay AID1996.

Converted amounts (≈) assume the structure as drawn.

For this data set the following is noted: buffer; pH 7.4; 200.0 µM.
By solubility (kinetic) is commonly meant solubility judged after dilution from a stock solution rather than from solid. As to `CN(CC(=O)Nc1cccc(F)c1)C(=O)c1ccc(OCc2cn3ccccc3n2)cc1`, the kinetic solubility is 9.2 µg/mL (≈ 21.3 µM).
Turning to `CSc1ccc(S(=O)(=O)N2CCC(C(=O)NC3CC3)CC2)cc1`, the solubility (kinetic) amounted to 36 µg/mL (≈ 102 µM).
The same measure for `COc1cccc(Nc2ccc([N+](=O)[O-])c3nonc23)c1`: 5.2 µg/mL (≈ 18.2 µM).
`CCOc1c(C)cc(S(=O)(=O)NCc2ccccn2)c(C)c1C`: the solubility (kinetic) is more than 50.2 µg/mL.
Consider `CN(Cc1ccccc1)C(=O)c1ccccc1C(=O)OCC(=O)N(Cc1ccccc1)C(C)(C)C`, for which the solubility (kinetic) turned out to be 25.7 µg/mL (≈ 54.4 µM).
In the case of `CN(Cc1nc(-c2ccc(Cl)cc2)no1)C(=O)c1ccco1`, the kinetic solubility amounted to 47.5 µg/mL (≈ 149 µM).
Take `O=C(CN1CCC(NC(=O)C2CC2)CC1)Nc1cccc(F)c1`: the solubility (kinetic) was more than 47.9 µg/mL.
On to `C=CCSc1nc(N2CCOCC2)c2c(c1C#N)CC(C)(C)N(C)C2`, for which the solubility (kinetic) came to 49.9 µg/mL (≈ 139 µM).
In turn, `C=CCNc1nc2c(c(=O)[nH]c(=O)n2C)n1CCCc1ccccc1` gave a solubility (kinetic) of 5.2 µg/mL (≈ 15.3 µM).
For the compound `O=C(CNC(=O)c1ccco1)Nc1cccc(Cl)c1`, the solubility (kinetic) worked out at 18.9 µg/mL (≈ 67.8 µM).
On to `O=C(NCc1cccc(Cl)c1)C1CCCO1` (configuration not stated), for which the solubility (kinetic) turned out to be 31.3 µg/mL (≈ 131 µM).
With `Cc1ccoc1C(=O)Nc1cccc2ccccc12` the figure was 33.9 µg/mL (≈ 135 µM).
With `O=[N+]([O-])c1ccc(CCn2ccnc2)cc1` the figure was more than 32.6 µg/mL.
The same measure for `Cc1ccccc1Nc1c([N+](=O)[O-])cncc1[N+](=O)[O-]`: 37.1 µg/mL (≈ 135 µM); for `CCc1ccc(NC(=O)NCCN2CCCCC2)cc1`: more than 41.3 µg/mL.
With `COc1ccc(NC(=O)C(Br)C(C)C)cc1` (configuration not stated), the solubility (kinetic) came out at 40.7 µg/mL (≈ 142 µM).
The same measure for `O=C(O)c1cc(S(=O)(=O)N2CCCCC2)ccc1Cl`: more than 45.6 µg/mL; for `NC(=O)C1CCCN(Cc2ccc3ccccc3c2)C1` (configuration not stated): 29.2 µg/mL (≈ 109 µM); for `Cc1ccc(NC(=O)CCCn2c(=O)oc3ccccc32)c(O)c1`: 12.6 µg/mL (≈ 38.6 µM).
`COC(=O)c1c(NC(=O)c2ccccc2)sc(C(N)=O)c1C` came in with a solubility (kinetic) of 1.8 µg/mL (≈ 5.65 µM).
The same measure for `Clc1ccc(C(c2ccccc2)N2CCN(c3ccccn3)CC2)cc1` (configuration not stated): 0.9 µg/mL (≈ 2.47 µM); for `Cc1cc(Nc2cccc(Cl)c2)c2ccccc2n1`: 32.5 µg/mL (≈ 121 µM).
With `Cc1nc(-c2cccc(Br)c2)ccc1C(=O)O` the figure was 43.2 µg/mL (≈ 148 µM); with `O=C1CSC(c2ccc([N+](=O)[O-])cc2)N1c1ccccc1F` (configuration not stated), more than 47.7 µg/mL; with `O=C(O)c1ccccc1-c1ccccc1C(=O)NCc1ccccc1F`, 38.4 µg/mL (≈ 110 µM).
The same measure for `Cc1c(-c2nc(-c3ccncc3)no2)cccc1[N+](=O)[O-]`: 1.7 µg/mL (≈ 6.02 µM); for `CC(C)[C@H](NC(=O)c1ccccc1F)C(=O)OCC(=O)Nc1sccc1C(N)=O`: more than 63.2 µg/mL.
`Cc1cccc(C)c1NC(=O)COC(=O)c1ccc([N+](=O)[O-])o1` yielded a solubility (kinetic) of 34.3 µg/mL (≈ 108 µM).
With `CCCC(=O)Nc1ccc2c(c1)nc1n2CCN(CCOC)C1` the figure was more than 47.5 µg/mL.
With `O=C(O)c1ccc(NCc2nc3ccccc3n2Cc2ccccc2)cc1` the figure was more than 53.6 µg/mL; with `CCc1ccc(C2CC(=O)Nc3c2c(=O)nc2c(C)cccn32)cc1` (configuration not stated), more than 50 µg/mL.
The same measure for `COc1ccc(OC)c2c1sc(=NC(=O)C1COc3ccccc3O1)n2C` (configuration not stated): less than 0.4 µg/mL.
As to `O=C(O)/C=C/C(=O)Nc1ccc(Oc2ccccc2)cc1`, the solubility (kinetic) was more than 42.5 µg/mL.
The same measure for `CC12CC3CC(C1)CC(C(=O)NNC(=O)c1ccncc1)(C3)C2`: more than 47 µg/mL.
Compound `COc1ccc(CNC(=O)C(C)OC(=O)c2cccc(N(C)C)c2)cc1` (configuration not stated) registered a solubility (kinetic) of 37.8 µg/mL (≈ 106 µM).
With `Cc1ccc2cc3c(nc2c1)OCC3` the figure was more than 27.8 µg/mL; with `CCC1(C)NC(=O)N(/N=C/c2ccc(C)s2)C1=O` (configuration not stated), more than 39.8 µg/mL; with `CCc1nc2cccnc2n1-c1ccc(CC(=O)NC(C)CC)cc1` (configuration not stated), more than 50.5 µg/mL.
Compound `Cc1cc(NS(=O)(=O)c2ccc(NC(=O)C3CCCCC3)cc2)no1` returned a kinetic solubility of 44.1 µg/mL (≈ 121 µM).
`CC1CCCCC1NC(=O)CSc1nc2ccccc2[nH]1` (configuration not stated): the solubility (kinetic) was 37.5 µg/mL (≈ 124 µM).
The same measure for `COc1ccc(S(=O)(=O)NCC2CCCO2)cc1C(=O)O` (configuration not stated): more than 47.3 µg/mL.
With `CCOc1cc(N2CCOCC2)c(OCC)cc1NC(=O)COC(=O)c1c(CC)noc1C` the figure was 7 µg/mL (≈ 15.2 µM).
With `CN(C(=O)Nc1cnccc1C(F)(F)F)C1CCCCC1`, the solubility (kinetic) is 41.1 µg/mL (≈ 136 µM).
In the case of `Cc1ccc2cc3cc(C(=O)NC4CC4)oc3nc2c1`, the solubility (kinetic) was found to be 1.3 µg/mL (≈ 4.88 µM).
With `O=C(Nc1ccncc1)Nc1ccc(F)cc1` the figure was 29.9 µg/mL (≈ 129 µM).
With `CCOC(=O)c1c(CC(C)C)csc1/N=C/C1=C(O)CCCC1=O`, the solubility (kinetic) was 2.3 µg/mL (≈ 6.58 µM).
`C=CCN1C(=O)C2(OCCCO2)c2cccc(C)c21` registered a kinetic solubility of 37.9 µg/mL (≈ 146 µM).
Compound `NC(=O)c1ccccc1NC(=O)COc1ccc2c(c1)OCO2` yielded a kinetic solubility of 3.1 µg/mL (≈ 9.86 µM).
With `COc1cccc(Nc2c(Nc3cccc(OC)c3)c(=O)c2=O)c1` the figure was less than 0.3 µg/mL; with `CSc1ncc(Cl)c(C(=O)Nc2cc(C)ccc2C)n1`, less than 0.2 µg/mL.
With `COC1c2ccccc2C(=O)N1CCc1ccc(Cl)cc1` (configuration not stated) the figure was 41.7 µg/mL (≈ 138 µM); with `O=C(OCCN1C(=O)c2ccccc2C1=O)Oc1ccccc1`, 37.1 µg/mL (≈ 119 µM); with `COc1ccc(CCNC(=O)COC(=O)/C=C/c2cccc(F)c2)cc1`, 5.4 µg/mL (≈ 15.1 µM).
The same measure for `CCOc1ccccc1NC(=O)CCCNC(=O)c1ccc(Cl)cc1`: 50.4 µg/mL (≈ 140 µM); for `Cc1nc2ccc(NC(=O)c3cccc(S(=O)(=O)N4CCOCC4)c3)cc2s1`: 6.2 µg/mL (≈ 14.8 µM); for `COc1ccc(C2=NOC(C(=O)Nc3cccnc3)C2)cc1OC` (configuration not stated): 46.8 µg/mL (≈ 143 µM).
In the case of `CC(C)(C)NC(=O)[C@H]1CC[C@H]2[C@@H]3CC[C@H]4NC(=O)C=C[C@]4(C)[C@H]3CC[C@]12C`, the kinetic solubility was 52.8 µg/mL (≈ 142 µM).
The same measure for `Cc1ccc(CC2CC(=O)N(c3nc4ccccc4s3)C2=O)cc1` (configuration not stated): 10.3 µg/mL (≈ 30.6 µM); for `Cc1cc2nc(/N=C(\N)NC(=O)C(C)C)nc(C)c2cc1C`: 2.9 µg/mL (≈ 9.69 µM).
Take `Cc1cccc(Nc2ncccc2C(=O)O)c1C`: the kinetic solubility is more than 36.3 µg/mL.
The same measure for `CCN(C(=O)COC(=O)c1cc(OC)ccc1Br)C1CCS(=O)(=O)C1` (configuration not stated): more than 65.1 µg/mL; for `CCN(CC(=O)NCc1cccs1)C(=O)c1ccc(-c2ccc(F)cc2)o1`: 51.8 µg/mL (≈ 134 µM); for `COc1cccc(CNC(=O)N2CCN(c3ccccc3)CC2)c1`: 20.5 µg/mL (≈ 63 µM).
With `Cc1ccc(C(=O)OCC(=O)Nc2cc(C(C)(C)C)no2)c(C)c1`, the kinetic solubility worked out at 3.1 µg/mL (≈ 9.38 µM).
Regarding `CN(CC(=O)Nc1cccc(F)c1)C(=O)C1=COCCO1`, the solubility (kinetic) is more than 44.1 µg/mL.
As for `CCOc1ccccc1N1CN(Cc2ccccc2)CNC1=S`, the solubility (kinetic) is more than 49.1 µg/mL.
`O=C(Nc1ccc(O)cc1)/C(=C\C=C\c1ccccc1)NC(=O)c1ccccc1` gave a kinetic solubility of 14.9 µg/mL (≈ 38.8 µM).
`O=C(O)C1CCCCC1C(=O)NCc1ccc(Cl)c(Cl)c1` (configuration not stated): the solubility (kinetic) came to 35.6 µg/mL (≈ 108 µM).
With `CC(=O)c1nc(-c2ccccc2)sc1C` the figure was 12.7 µg/mL (≈ 58.4 µM); with `O=S(=O)(Nc1ccc2c(c1)OCCO2)c1cccc(F)c1`, more than 46.4 µg/mL.
For the compound `CCC(C)c1ccc(NC(=S)NCc2ccccn2)cc1` (configuration not stated), the solubility (kinetic) was 38.5 µg/mL (≈ 129 µM).
The same measure for `Cc1ccc2c(c1)C1(C)C(C(C)(C)N2C=O)C1(Cl)Cl` (configuration not stated): 39.3 µg/mL (≈ 132 µM); for `CC(=O)c1cccc(Nc2nc(-c3sc(N)nc3C)cs2)c1`: 4.5 µg/mL (≈ 13.6 µM); for `Cc1ccc2c(CN3CCOCC3)cc(=O)oc2c1`: more than 38.9 µg/mL.
With `COc1ccc2nc(N(CCN(C)C)C(=O)c3ccc4ccccc4c3)sc2c1.Cl` the figure was 24.9 µg/mL.
With `CN(Cc1ccccc1F)C(=O)CCCNC(=O)c1ccc(Cl)cc1` the figure was 32.4 µg/mL (≈ 89.3 µM); with `CCC(C)NC(=O)c1cc(-c2ccc3c(c2)OCO3)on1` (configuration not stated), 3 µg/mL (≈ 10.4 µM); with `O=C(COC(=O)c1ccc(F)cc1)NCCCc1ccccc1`, 5.9 µg/mL (≈ 18.7 µM).
On to `COc1ccc(C2NC(c3ccc(OC)cc3)C(C)C(=O)C2C)cc1` (configuration not stated), for which the solubility (kinetic) stood at 12.2 µg/mL (≈ 35.9 µM).
In turn, `CCc1ccc(NC(=O)CCC(=O)c2ccccc2)cc1` gave a solubility (kinetic) of 7.5 µg/mL (≈ 26.7 µM). Against the preceding compound, the solubility kinetic is about 1.6-fold lower.
With `COC(/C(=N/O)c1ccc(Cl)cc1)c1ccccc1` (configuration not stated), the solubility (kinetic) stood at 35.8 µg/mL (≈ 130 µM). Compared with the last compound, the solubility kinetic is about 4.8-fold higher.
The same measure for `O=C(NC1CCN(Cc2ccc(Cl)cc2Cl)CC1)c1ccccc1`: 2.3 µg/mL (≈ 6.33 µM); for `Cn1c(SCC(=O)Nc2ccccc2)nc2ccccc2c1=O`: 3.2 µg/mL (≈ 9.83 µM).
`CC(NC(=O)c1c(O)c2ccccc2n(C)c1=O)c1ccccc1` (configuration not stated) returned a solubility (kinetic) of less than 0.3 µg/mL.
With `O=C(COC(=O)Cc1c(F)cccc1Cl)Nc1ccc2[nH]c(=O)[nH]c2c1` the figure was more than 56.7 µg/mL; with `COc1ccc(C2(O)C(=O)Nc3ccc(C)cc32)cc1OC` (configuration not stated), more than 44.9 µg/mL; with `O=C(NCCN1CCOCC1)Nc1ccc(F)cc1`, more than 40.1 µg/mL.
As for `COc1cccc(NC(=O)N2CCc3ccccc3C2)c1`, the solubility (kinetic) is more than 42.4 µg/mL.
The same measure for `Cc1ccccc1NC(=O)C(=O)c1cn(C)c2ccccc12`: less than 0.3 µg/mL.
The same measure for `O=C(Nc1ccncc1)c1ccc(Cl)c([N+](=O)[O-])c1`: more than 41.7 µg/mL; for `O=C(O)/C=C/c1ccc(-n2ccnc2)cc1`: more than 32.1 µg/mL; for `CSc1cccc(CN2CCC(CCC(=O)NC3CC3)CC2)c1`: more than 49.9 µg/mL.
The same measure for `COCCNc1nnc(Cc2ccc(OC)c(OC)c2)c(=O)[nH]1`: more than 48.1 µg/mL; for `COc1cc2ncnc(NCc3ccco3)c2cc1OC`: 38.9 µg/mL (≈ 136 µM); for `O=C(COc1ccccc1[N+](=O)[O-])NCC1COc2ccccc2O1` (configuration not stated): 24.2 µg/mL (≈ 70.3 µM).
`O=C(NCc1ccco1)/C(=C\c1cccs1)NC(=O)c1ccccc1`: the kinetic solubility is more than 52.9 µg/mL.
Consider `COc1ccc(Cl)cc1NC(=O)NN1CCN(C)CC1`, for which the solubility (kinetic) is more than 44.8 µg/mL.
The same measure for `Cc1ccc(NC(=O)OCc2cc(-c3ccccc3)on2)cc1`: less than 0.3 µg/mL.
The same measure for `CCSc1nsc(NC(=O)Nc2ccccc2F)n1`: 1.4 µg/mL (≈ 4.69 µM); for `Cc1cc(/C=C(/C#N)C(=O)O)c(C)n1-c1cccc2ccccc12`: more than 47.5 µg/mL; for `Cl.O=C(CN1CCCC1)NCc1ccccc1`: 32.6 µg/mL.
The compound `O=C1NC2(CCCCCC2)C(=O)N1Cc1cccc([N+](=O)[O-])c1` had a kinetic solubility of 32.1 µg/mL (≈ 101 µM).
